The source made the active and inactive calls.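 The calls were made as follows: active = compounds whose half-maximal inhibitory concentration IC50 is 20 µM or lower; inactive = the rest.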

In the test the test system is isolated mouse liver mitochondria, Ca2+ swelling, A540 20 min. The test can be described thus: mitochondrial swelling inhibition, absorbance readout – dry powder samples, uHTS hits, dose response (AID 743359).
For `O=C(Nc1ccc(F)cc1F)c1cc(-c2ccccc2)on1`, the IC50 was > 50 µM (inactive). Then `O=C(Nc1ccc(CN2CCCCC2)cc1)c1cc(Cl)ccc1O`, with > 50 µM (inactive). Under `CN1CCN(c2ccc(NC(=O)c3ccc(OCc4ccccc4)cc3)cc2)CC1` stands > 50 µM (inactive).

As to `COc1ccc(Cl)cc1C(=O)Nc1ccc(N2CCCCC2)cc1`, the IC50 was > 50 µM (inactive).

Turning to `CCCc1cc(C(=O)Nc2ccc(Br)cc2)no1`, the IC50 is > 50 µM (inactive). For the compound `COc1ccc(Cl)cc1S(=O)(=O)Nc1ccc(CCN2CCN(C)CC2)cc1`, the IC50 was > 50 µM (inactive). Under `COc1ccc(Cl)cc1C(=O)Nc1ccc(CCN2CCOCC2)cc1` stands 13.8 µM; under `O=C(Nc1cccc(Cl)c1Cl)c1cc(-c2cccc(O)c2)on1`, 10.4 µM.

On to `O=C(Nc1cc(Cl)ccc1F)c1cc(-c2cccc(O)c2)on1`, for which the IC50 is under 0.391 µM. For the compound `O=C(Nc1ccc(Cl)cc1)c1cc(-c2ccccc2)on1`, the IC50 is > 50 µM (inactive). Regarding `CN1CCN(Cc2ccc(NS(=O)(=O)c3cc(Cl)cc(Cl)c3)cc2)CC1`, the IC50 was 23.3 µM (inactive).

Regarding `Cc1cc(NC(=O)c2ccc(-n3cnnc3)cc2)no1`, the IC50 is > 50 µM (inactive). In the case of `O=C(Nc1ccc(N2CCCCC2)cc1)c1cccc(OCc2ccccc2)c1`, the IC50 was > 50 µM (inactive). Then `O=C(Nc1ccc(CN2CCCCC2)cc1)c1cc(OCc2ccccc2)ccc1Cl`, with 2.44 µM. As to `O=C(Nc1ccc(CN2CCCCC2)cc1)c1ccc(Cl)c(OCc2ccccc2)c1`, the IC50 was under 0.391 µM. Then `CN1CCN(c2ccc(NC(=O)c3cccc(OCc4ccccc4)c3)cc2)CC1`, with 1.92 µM; and `COc1cccc(-c2cc(C(=O)Nc3cc(Cl)ccc3C)no2)c1`, with 40 µM (inactive); and `CCN(C(=O)c1cc(Cl)ccc1OC)c1ccccc1`, with > 50 µM (inactive).

Turning to `CCCc1cc(C(=O)Nc2c(F)cc(F)cc2Br)no1`, the IC50 is 4.96 µM.

Regarding `COc1ccc(/C=C/C(=O)Nc2cccc(Cl)c2)cc1O`, the IC50 is under 0.391 µM.

Take `COc1ccc(Cl)cc1C(=O)Nc1ccc(CCN2CCNCC2)cc1`: the IC50 is 5.28 µM. Then `CN1CCN(c2ccccc2NC(=O)c2ccc(OCc3ccccc3)cc2)CC1`, with 2.3 µM; and `COc1ccc(Cl)cc1C(=O)Nc1cccc(CN2CCNCC2)c1`, with 4.74 µM. With `CC(C)C1CCN(CCCC(=O)c2ccc(Br)cc2)CC1`, the IC50 was 10.3 µM.

In the case of `CN1CCN(c2ccc(NS(=O)(=O)c3cccc(Cl)c3)cc2)CC1`, the IC50 was > 50 µM (inactive). Regarding `COc1ccc(Cl)cc1S(=O)(=O)Nc1ccc(CN2CCN(C)CC2)cc1`, the IC50 is > 50 µM (inactive).

Take `COc1ccc(Cl)cc1C(=O)Nc1ccc(N(C)C)cc1`: the IC50 was 10.1 µM. For `O=S(=O)(Nc1ccc(CN2CCCCC2)cc1)c1ccc(F)c(Cl)c1`, the IC50 was > 50 µM (inactive). As for `CN1CCN(Cc2ccc(NC(=O)c3cccc(OCc4ccccc4)c3)cc2)CC1`, the IC50 was 3.31 µM. Take `O=S(=O)(Nc1ccc(CCN2CCCCC2)cc1)c1cccc(Cl)c1`: the IC50 is > 50 µM (inactive). Then `COc1ccc(Cl)cc1C(=O)Nc1ccccc1`, with 6.35 µM (inactive); and `COc1ccc(Cl)cc1C(=O)Nc1ccc(CN2CCN(C)CC2)cc1`, with 13.5 µM; and `COc1ccc(Cl)cc1C(=O)Nc1ccc(CCN2CCN(C(=O)OC(C)(C)C)CC2)cc1`, with 20.1 µM.

These data come from PubChem BioAssay AID743359 (Molecular Libraries Program, Specialized Chemistry Center, …, 2014).
